Here are results for 13 compounds from patent US10160736B2, “1,3,4-oxadiazole and 1,3,4-thiadiazole derivatives as immunomodulators” (Aurigene Discovery Technologies Limited, priority 2013, dated 2018).

The target in this assay is T1, Recombinant mouse PD-L1 (Mus musculus, UniProt Q9EP73).
T1 construct: Fc (Fc chimera); purchased R&D Systems 1019-B7-100
Kind of assay: Rescue of mouse splenocyte proliferation in the presence of recombinant PD-L1/PD-L2 (CFSE proliferation assay). It is filed as cell-based. Particulars: 100 nM compound; anti-CD3/CD28 stimulated mouse splenocytes + PD-L1; 72 h; normalised to stimulated splenocyte proliferation as 100%; read-out: Percent rescue of splenocyte proliferation (@100 nM compound concentration). The protocol: Rescue of Mouse Splenocyte Proliferation in the Presence of Recombinant PD-L1/PD-L2:
Recombinant mouse PD-L1 (rm-PDL-1, cat no: 1019-B7-100 and R&D Systems) were used as the source of PD-L1.
Mouse splenocytes harvested from 6-8 weeks old C57 BL6 mice; RPMI 1640 (GIBCO, Cat #11875); DMEM with high glucose (GIBCO, Cat # D6429); Fetal Bovine Serum [Hyclone, Cat # SH30071.03]; Penicillin (10000 unit/ml)-Streptomycin (10,000 μg/ml) Liquid (GIBCO, Cat #15140-122); MEM Sodium Pyruvate solution 100 mM (100×), Liquid (GIBCO, Cat #11360); Nonessential amino acid (GIBCO, Cat #11140); L-Glutamine (GIBCO, Cat #25030); Anti-CD3 antibody (eBiosciences—16-0032); Anti-CD28 antibody (eBiosciences—16-0281); ACK lysis buffer (1 mL) (GIBCO, Cat #-A10492); Histopaque (density—1.083 gm/mL) (SIGMA 10831); Trypan blue solution (SIGMA-T8154); 2 mL Norm Ject Luer Lock syringe-(Sigma 2014-12); 40 μM nylon cell strainer (BD FALCON 35230); Hemacytometer (Bright line-SIGMA Z359629); FACS Buffer (PBS/0.1% BSA): Phosphate Buffered Saline (PBS) pH 7.2 (HiMedia TS1006) with 0.1% Bovine Serum Albumin (BSA) (SIGMA A7050) and sodium azide (SIGMA 08591); 5 mM stock solution of CFSE: CFSE stock solution was prepared by diluting lyophilized CFSE with 180 μL of Dimethyl sulfoxide (DMSO C2H6SO, SIGMA-D-5879) and aliquoted in to tubes for further use. Working concentrations were titrated from 10 μM to 1 μM. (eBioscience-650850-85); 0.05% Trypsin and 0.02% EDTA (SIGMA 59417C); 96-well format ELISA plates (Corning CLS3390); BD FACS caliber (E6016); Recombinant mouse B7-H1/PDL1 Fc Chimera, (rm-PD-L1 cat no: 1019-B7-100).
Splenocytes harvested in a 50 mL falcon tube by mashing mouse spleen in a 40 μm cell strainer were further treated with 1 mL ACK lysis buffer for 5 min at room temperature. After washing with 9 mL of RPMI complete media, cells were re-suspended in 3 mL of 1×PBS in a 15 mL tube. 3 mL of Histopaque was added carefully to the bottom of the tube without disturbing overlaying splenocyte suspension. After centrifuging at 800×g for 20 min at room temperature, the opaque layer of splenocytes was collected carefully without disturbing/mixing the layers. Splenocytes were washed twice with cold 1×PBS followed by total cell counting using Trypan Blue exclusion method and used further for cell based assays.
Splenocytes were cultured in RPMI complete media (RPMI+10% fetal bovine serum+1 mM sodium pyruvate+10,000 units/ml penicillin and 10,000 μg/ml streptomycin) and maintained in a CO2 incubator with 5% CO2 at 37° C.
CFSE is a dye that passively diffuses into cells and binds to intracellular proteins. 1×10^6 cells/mL of harvested splenocytes were treated with 5 μM of CFSE in pre-warmed 1×PBS/0.1% BSA solution for 10 min at 37° C. Excess CFSE was quenched using 5 volumes of ice-cold culture media to the cells and incubated on ice for 5 min. CFSE labelled splenocytes were further given three washes with ice cold complete RPMI media. CFSE labelled 1×10^5 splenocytes added to wells containing either MDA-MB231 cells (1×10^5 cells cultured in high glucose DMEM medium) or recombinant […] PDL-1 (100 ng/mL) and test compounds. Splenocytes were stimulated with anti-mouse CD3 and anti-mouse CD28 antibody (1 μg/mL each), and the culture was further incubated for 72 h at 37° C. with 5% CO2. Cells were harvested and washed thrice with ice cold FACS buffer and % proliferation was analyzed by flow cytometry with 488 nm excitation and 521 nm emission filters.
Percent splenocyte proliferation was analyzed using cell quest FACS program and percent rescue of splenocyte proliferation by compound was estimated after deduction of % background proliferation value and normalising to % stimulated splenocyte proliferation (positive control) as 100%.
Stimulated splenocytes: Splenocytes+anti-CD3/CD28 stimulation
Background proliferation: Splenocytes+anti-CD3/CD28+PD-L1
Compound proliferation: Splenocytes+anti-CD3/CD28+PD-L1+Compound […]

Molecules are shown by their SMILES.

T1 sequence (Q9EP73 with tags, fused parts or gaps limits assumed): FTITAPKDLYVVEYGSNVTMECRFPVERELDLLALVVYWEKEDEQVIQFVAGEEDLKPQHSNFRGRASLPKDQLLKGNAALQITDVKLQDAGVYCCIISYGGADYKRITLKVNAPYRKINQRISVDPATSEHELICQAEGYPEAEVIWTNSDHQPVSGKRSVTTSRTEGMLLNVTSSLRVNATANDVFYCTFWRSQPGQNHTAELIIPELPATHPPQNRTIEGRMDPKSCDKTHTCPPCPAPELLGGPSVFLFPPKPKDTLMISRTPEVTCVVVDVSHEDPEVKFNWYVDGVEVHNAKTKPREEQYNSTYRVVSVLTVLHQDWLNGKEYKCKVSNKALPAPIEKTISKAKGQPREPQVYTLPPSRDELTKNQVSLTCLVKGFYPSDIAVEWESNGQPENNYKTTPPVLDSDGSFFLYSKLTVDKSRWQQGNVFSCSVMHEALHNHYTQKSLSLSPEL

Consider `CC(O)[C@H](NC(=O)N[C@@H](C)c1nnc([C@@H](N)CO)o1)C(=O)O` (stereo partly shown) [Compound 1], for which the activation at 0.1 µM came out at 61.2%.

On to `CC(O)[C@H](NC(=O)N[C@@H](CC(N)=O)c1nnc([C@@H](N)CO)o1)C(=O)O` (stereo partly shown) [Compound 2], for which the activation at 0.1 µM amounted to 80.3%.

`NC(=O)C[C@H](N)c1nnc([C@@H](N)CO)s1` [Compound 3]: the activation at 0.1 µM is 48.4%.

Take `CC(O)[C@H](NC(=O)N[C@@H](CC(N)=O)c1nnc([C@@H](N)CO)s1)C(=O)O` (stereo partly shown) [Compound 4]: the activation at 0.1 µM is 60%.

As for `CC(O)[C@H](NC(=O)N[C@@H](CC(N)=O)c1nnc([C@@H](N)C(C)O)o1)C(=O)O` (stereo partly shown) [Compound 9], the activation at 0.1 µM was found to be 74%.

As to `CC(O)[C@H](N)c1nnc([C@H](CC(N)=O)NC(=O)N[C@@H](CO)C(=O)O)o1` (stereo partly shown) [Compound 10], the activation at 0.1 µM came to 58%.

For `CC(O)[C@H](N)c1nnc([C@H](CCC(N)=O)NC(=O)N[C@@H](CO)C(=O)O)o1` (stereo partly shown) [Compound 12], the activation at 0.1 µM worked out at 92%.

Regarding `CC(O)[C@H](NC(=O)N[C@@H](CCC(N)=O)c1nnc([C@@H](N)C(C)O)o1)C(=O)O` (stereo partly shown) [Compound 13], the activation at 0.1 µM was found to be 75%.

With `NC(=O)C[C@H](NC(=O)N[C@@H](CO)C(=O)O)c1nnc([C@@H](N)CO)o1` [Compound 14], the activation at 0.1 µM came to 53%.

With `CC(O)[C@H](NC(=O)N[C@@H](CCC(=O)O)c1nnc([C@@H](N)CO)o1)C(=O)O` (stereo partly shown) [Compound 15], the activation at 0.1 µM was determined as 69%.

For the compound `CC(O)[C@H](NC(=O)N[C@@H](CCC(N)=O)c1nnc([C@@H](N)CO)o1)C(=O)O` (stereo partly shown) [Compound 16], the activation at 0.1 µM was 56%.

Take `NC(=O)CC[C@H](NC(=O)N[C@@H](CO)C(=O)O)c1nnc([C@@H](N)CO)o1` [Compound 17]: the activation at 0.1 µM was 53%.

Turning to `CC(O)[C@H](NC(=O)N[C@@H](CC(=O)O)c1nnc([C@@H](N)CO)o1)C(=O)O` (stereo partly shown) [Compound 18], the activation at 0.1 µM was found to be 68%.
